Results: PMC4550771, “Synthesis and Validation of a Hydroxypyrone-Based, Potent, and Specific Matrix Metalloproteinase-12 Inhibitor with Anti-Inflammatory Activity In Vitro and In Vivo” (Mediators of Inflammation, 2015)

Key:
[1] = molecular target: T1, human recombinant MMP-12 catalytic domain (Homo sapiens, UniProt P39900); assay: Detailed dose-response with Substrate XIII (AnaSpec) quenched fluorescent substrate; format: biochemical
T1 construct: human recombinant MMP-3 (72006, AnaSpec) and MMP-12 catalytic domains (55525-1, AnaSpec); purchased AnaSpec 55525-1
T1 sequence (P39900 106-263 limits assumed): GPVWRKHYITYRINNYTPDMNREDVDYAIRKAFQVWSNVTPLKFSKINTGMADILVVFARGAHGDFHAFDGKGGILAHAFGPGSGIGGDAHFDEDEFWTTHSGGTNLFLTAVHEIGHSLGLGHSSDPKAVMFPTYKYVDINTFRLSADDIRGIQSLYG
Method: […] Briefly, the compound was dissolved in dimethyl sulfoxide (DMSO) and further diluted in assay buffer (50 mM HEPES, 10 mM CaCl2, 0.05% Brij-35, and pH 7.5). […] In each experiment we included a blank, a substrate control (substrate only in assay buffer), a positive control (NNGH, 1.3 μM final concentration), and negative control (only substrate and inhibitor in assay buffer). The latter was implemented to exclude possible interference of the inhibitor with the substrate. […] The IC50 values were determined in a single experimental run in duplicate. Data analysis and curve fitting for determination of IC50 values were performed in GraphPad Prism 6.

[2] = molecular target: T1, human recombinant MMP-12 catalytic domain; assay: Recombinant MMP fluorescent assay kit (OmniMMP substrate), initial screen; format: biochemical; conditions: pH 7.5, 1 h incubation at 37°C, OmniMMP substrate 4 μM, read-out: apparent IC50 MMP-12 (initial screen)
Method: (§1) The specificity of the synthesized inhibitor was determined in vitro against a panel of ten human recombinant MMP catalytic domains using a fluorescent assay kit (BML-AK016, Enzo Life Sciences). Briefly, the compound was dissolved in dimethyl sulfoxide (DMSO) and further diluted in assay buffer (50 mM HEPES, 10 mM CaCl2, 0.05% Brij-35, and pH 7.5). Ten MMPs (MMP-1, MMP-2, MMP-3, MMP-7, MMP-8, MMP-9, MMP-10, MMP-12, MMP-13, and MMP-14) were individually incubated with varying concentrations of inhibitor for one hour at 37°C, followed by addition of a quenched fluorogenic substrate (OmniMMP fluorogenic substrate Mca-Pro-Leu-Gly-Leu-Dpa-Ala-Arg-NH2 [Mca is (7-methoxycoumarin-4-yl)-acetyl; Dpa is N-3-(2,4-dinitrophenyl)-L-α-β-diaminopropionyl], 4 μM in assay). […] After each fluorescent measurement the well plates were shaken for 2 sec to agitate the reagents. In each experiment we included a blank, a substrate control (substrate only in assay buffer), a positive control (NNGH, 1.3 μM final concentration), and negative control (only substrate and inhibitor in assay buffer). The latter was implemented to exclude possible interference of the inhibitor with the substrate. […] The IC50 values were determined in a single experimental run in duplicate. Data analysis and curve fitting for determination of IC50 values were performed in GraphPad Prism 6.

[3] = test system: LPS-induced lethality in C57BL/6 mice; assay: Endotoxemia model: survival after lethal LPS challenge; format: in vivo, mouse; conditions: 100 μg i.p. 15 min before and 3 and 6 h after LPS 200 μg/20 g i.p. (LD100), log-rank test
Text: Female C57BL/6J (8–10 weeks old) mice were purchased from Janvier Labs (France) and MMP-12 knockout mice (MMP-12^−/−) (in C57BL/6J background together with littermate MMP-12^+/+ controls) were obtained from Dr. Steven Shapiro (University of Pittsburgh, USA). C57BL/6 and MMP-12^−/− mice were housed with 4–6 mice/cage with ad libitum access to food and water and with a 14-hour light/10-hour dark cycle in a specific pathogen-free animal facility and conventional facility, respectively. All experiments were approved by the Ethics Committee of the Faculty of Sciences of Ghent University.
Endotoxemia was induced by intraperitoneal (i.p.) injection of lipopolysaccharide (LPS) from Salmonella enterica serotype abortus equi (Sigma) dissolved in PBS. […] Control animals received i.p. injections of PBS. Rectal temperature was measured periodically after challenge. 100 μg MMP-12i (1 μg/μL) or vehicle control was administered intraperitoneally at different time points: 15 min before and 3 and 6 hours after LPS administration.

[4] = molecular target: T2, human recombinant MMP-13 catalytic domain (Homo sapiens, UniProt P45452); assay: Recombinant MMP fluorescent assay kit (OmniMMP substrate); format: biochemical
T2 construct: a panel of ten human recombinant MMP catalytic domains; purchased Enzo Life Sciences BML-AK016
Method: as §1

[5] = molecular target: T3, human recombinant MMP-14 catalytic domain (Homo sapiens, UniProt P50281); assay: as above; format: biochemical
T3 construct: a panel of ten human recombinant MMP catalytic domains; purchased Enzo Life Sciences BML-AK016
Method: as §1

[6] = molecular target: T4, human recombinant MMP-7 catalytic domain (Homo sapiens, UniProt P09237); assay: as above; format: biochemical
T4 construct: a panel of ten human recombinant MMP catalytic domains; purchased Enzo Life Sciences BML-AK016
T4 sequence (P09237 95-267): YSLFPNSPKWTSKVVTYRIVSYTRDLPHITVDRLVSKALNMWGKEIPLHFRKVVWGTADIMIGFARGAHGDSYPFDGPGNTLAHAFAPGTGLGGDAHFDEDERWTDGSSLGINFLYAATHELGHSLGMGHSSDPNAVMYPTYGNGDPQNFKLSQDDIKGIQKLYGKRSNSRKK
Method: as §1

[7] = molecular target: T5, human recombinant MMP-2 catalytic domain (Homo sapiens, UniProt P08253); assay: as above; format: biochemical
T5 construct: a panel of ten human recombinant MMP catalytic domains; purchased Enzo Life Sciences BML-AK016
T5 sequence (P08253 110-446 limits assumed): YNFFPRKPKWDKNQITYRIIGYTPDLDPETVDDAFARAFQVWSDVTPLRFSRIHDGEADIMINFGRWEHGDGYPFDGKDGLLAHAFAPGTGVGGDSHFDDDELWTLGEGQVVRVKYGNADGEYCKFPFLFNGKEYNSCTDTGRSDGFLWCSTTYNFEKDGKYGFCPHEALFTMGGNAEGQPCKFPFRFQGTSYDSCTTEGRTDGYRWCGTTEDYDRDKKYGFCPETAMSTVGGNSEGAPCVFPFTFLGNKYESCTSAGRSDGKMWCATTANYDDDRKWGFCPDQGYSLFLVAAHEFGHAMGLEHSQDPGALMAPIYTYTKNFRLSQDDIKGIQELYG
Method: as §1

[8] = molecular target: T6, human recombinant MMP-1 catalytic domain (Homo sapiens, UniProt P03956); assay: as above; format: biochemical
T6 construct: a panel of ten human recombinant MMP catalytic domains; purchased Enzo Life Sciences BML-AK016
T6 sequence (P03956 100-269 limits assumed): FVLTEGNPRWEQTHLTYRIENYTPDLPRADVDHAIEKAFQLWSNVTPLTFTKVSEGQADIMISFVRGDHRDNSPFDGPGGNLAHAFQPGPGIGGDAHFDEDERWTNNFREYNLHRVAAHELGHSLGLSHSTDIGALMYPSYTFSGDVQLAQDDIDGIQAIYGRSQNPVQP
Method: as §1

[9] = molecular target: T7, human recombinant MMP-10 catalytic domain (Homo sapiens, UniProt P09238); assay: as above; format: biochemical
T7 construct: a panel of ten human recombinant MMP catalytic domains; purchased Enzo Life Sciences BML-AK016
T7 sequence (P09238 99-263 limits assumed): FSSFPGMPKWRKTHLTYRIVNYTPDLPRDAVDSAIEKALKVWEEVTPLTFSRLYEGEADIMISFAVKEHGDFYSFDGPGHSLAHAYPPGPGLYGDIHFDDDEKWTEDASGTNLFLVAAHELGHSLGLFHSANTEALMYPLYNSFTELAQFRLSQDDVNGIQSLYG
Method: as §1

[10] = molecular target: T8, human recombinant MMP-8 catalytic domain (Homo sapiens, UniProt P22894); assay: as above; format: biochemical
T8 construct: a panel of ten human recombinant MMP catalytic domains; purchased Enzo Life Sciences BML-AK016
T8 sequence (P22894 100-262 limits assumed): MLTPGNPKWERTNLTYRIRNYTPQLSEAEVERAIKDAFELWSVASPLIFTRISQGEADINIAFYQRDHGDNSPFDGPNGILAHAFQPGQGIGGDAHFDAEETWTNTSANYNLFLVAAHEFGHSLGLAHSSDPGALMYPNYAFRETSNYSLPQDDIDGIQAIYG
Method: as §1

[11] = molecular target: T9, human recombinant MMP-9 catalytic domain (Homo sapiens, UniProt P14780); assay: as above; format: biochemical
T9 construct: a panel of ten human recombinant MMP catalytic domains; purchased Enzo Life Sciences BML-AK016
T9 sequence (P14780 107-444 limits assumed): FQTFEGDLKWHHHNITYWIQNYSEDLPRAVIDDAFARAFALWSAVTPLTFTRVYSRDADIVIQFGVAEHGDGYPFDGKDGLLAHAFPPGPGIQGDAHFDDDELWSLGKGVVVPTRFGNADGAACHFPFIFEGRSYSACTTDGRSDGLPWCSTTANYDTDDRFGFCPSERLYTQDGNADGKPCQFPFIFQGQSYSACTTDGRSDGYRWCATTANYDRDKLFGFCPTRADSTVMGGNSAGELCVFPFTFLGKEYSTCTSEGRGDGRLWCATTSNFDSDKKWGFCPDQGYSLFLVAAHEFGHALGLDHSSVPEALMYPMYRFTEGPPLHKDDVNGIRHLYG
Method: as §1

[12] = molecular target: T10, human recombinant MMP-3 catalytic domain (Homo sapiens, UniProt P08254); assay: as above; format: biochemical
T10 construct: a panel of ten human recombinant MMP catalytic domains; purchased Enzo Life Sciences BML-AK016
T10 sequence (P08254 100-272 limits assumed): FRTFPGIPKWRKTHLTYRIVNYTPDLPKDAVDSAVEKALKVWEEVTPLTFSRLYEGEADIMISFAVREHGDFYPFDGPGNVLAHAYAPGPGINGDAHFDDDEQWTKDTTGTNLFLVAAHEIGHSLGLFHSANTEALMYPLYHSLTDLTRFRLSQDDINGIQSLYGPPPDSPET
Method: as §1

[13] = test system: primary mouse choroid plexus epithelial cells; assay: Blood-CSF barrier permeability in vitro (ECIS impedance); format: cell-based; conditions: 1 μM inhibitor 1 hour before LPS 1000 ng/mL; n = 3
Method: Culturing primary mouse choroid plexus epithelial cells was done as described. In brief, 2–9-day-old pups were decapitated and brains were isolated. Choroid plexuses from all four ventricles were isolated under a dissection microscope. The cells were dissociated enzymatically by incubating them for 5–7 min with pronase (isolated from Streptomyces griseus, Sigma). Digestion was stopped by adding an excess of HBSS buffer and the cells were washed twice with HBSS. The cell pellet was resuspended in DMEM-F12 culture medium and plated on laminin-coated plates. Two days later, they were shifted to DMEM-F12 containing cytosine arabinoside (Ara-C) to eliminate growth of fibroblasts. Cultures were maintained at 37°C in 5% CO2. Purity of the cultures was confirmed by checking the levels of transthyretin (TTR) both by qPCR and by immunostaining. Primary CPE cells retained the epithelial and the barrier properties which were confirmed by staining for E-cadherin, ZO-1, and occludin. The electric cell-substrate impedance (ECIS) technique (Applied Biophysics) was used to monitor barrier properties as described before. 250.000 cells per well were seeded onto laminin-coated 8W10E array plates (Applied Biophysics) and the array holder was placed in a standard cell culture incubator (37°C, 100% humidity, and 5% CO2). Array plates were connected to the instrument and multifrequency measurements were started. […]

[14] = test system: LPS-induced lethality in mice; conditions: cited from earlier work

SMILES	IC50 ([1]; Figure 1(c) fitted dose-response curve, read-out: log(IC50) MMP-12 (converted)) [nM]	inhibitory plateau at higher inhibitor concentrations, MMP-12 ([1]; Substrate XIII (AnaSpec), nonlinear regression) [%]	IC50 ([1]; Substrate XIII (AnaSpec), nonlinear regression of dose-response curve, read-out: relative IC50 MMP-12) [nM]	IC50 [2] [nM]	LPS-induced lethality (survival) vs vehicle [3]	IC50 [4] [µM]	IC50 [5] [µM]	IC50 [6] [µM]	IC50 [7] [µM]	IC50 [8] [µM]	IC50 [9] [µM]	IC50 [10] [µM]	IC50 [11] [µM]	IC50 [12] [µM]	LPS-induced drop in normalized resistance (ECIS, low frequency) [13]	protection from LPS-induced lethality [14]
Cc1cc(=O)c(O)c(C(=O)NCc2ccc(-c3ccc(-c4ccccc4)cc3)cc2)o1 [Compound 9, N-([1,1′:4′,1′′-Terphenyl]-4-ylmethyl)-3-hydroxy-6-methyl-4-oxo-4H-pyran-2-carboxamide]	177	72 ± 1.75	177	< 2000	significant reduction in LPS-induced lethality	> 50	2 to 50	> 50	2 to 50	> 50	> 50	2 to 50	> 50	> 50	significantly reduced	–
CNC(=O)[C@H](Cc1ccccc1)NC(=O)[C@H](CC(C)C)[C@H](CSc1cccs1)C(=O)NO [BB-94]	–	–	–	–	–	–	–	–	–	–	–	–	–	–	–	protected from LPS-induced lethality
